Converted amounts (≈) assume the structure as drawn.

Data set [1] deals with Leishmania amazonensis. In words: Antileishmanial activity against promastigote form of Leishmania amazonensis IFLA/BR/1967/PH8 assessed as parasite growth inhibition incubated for 72 hrs by MTT assay. Conditions: IFLA/BR/1967/PH8, 72 h. In kind it is functional, organism-based.
Data set [2] relates to Leishmania mexicana. In words: Inhibition of recombinant Leishmania mexicana CPB2.8 delta CTE at 20 uM.
Data set [3] concerns Leishmania panamensis. In words: Antileishmanial activity against Leishmania panamensis MHOM/CO/87/UA140pIR-GFP intracellular amastigotes infected in human U-937 cells assessed as parasite growth inhibition measured after 72 hrs by flow cytometry analysis. In kind it is functional, organism-based. Conditions: U-937, 72 h. Background: Flow cytometry measures light scatter and fluorescence of single cells or particles in a stream.

For data set [4], the system named is Trypanosoma cruzi. In words: Antitrypanosomal activity against Trypanosoma cruzi Tulahuen intracellular amastigotes transfected with beta-galactosidase infected in human U-937 cells assessed as viability of intracellular amastigotes measured after 72 hrs by spectrophotometry. The note with it: U-937, 72 h. In kind it is functional, organism-based.
In data set [5] the test system is Leishmania infantum. In words: Antileishmanial activity against promastigote form of Leishmania infantum MHOM/BR/70/BH46 promastigote assessed as parasite growth inhibition incubated for 72 hrs by Neubauer chamber analysis. The note with it: MHOM/BR/70/BH46, 72 h. The format is functional, organism-based.
Data set [6] has as its system Leishmania amazonensis. In words: Antileishmanial activity against Leishmania amazonensis IFLA/Br/67/PH8 intracellular amastigotes infected in BALB/c mouse peritoneal macrophages assessed as reduction in intracellular amastigotes incubated for 72 hrs by fluorometric analysis. The format is functional, organism-based. Conditions: IFLA/Br/67/PH8, 72 h.
Data set [7] relates to Leishmania major. Put plainly: Antileishmanial activity against Leishmania major JISH118 promastigote infected in human THP-1 cells assessed as parasite growth inhibition measured after 48 hrs by Giemsa staining based analysis. Conditions: JISH118, THP-1, 48 h. In kind it is functional, organism-based.
The subject of data set [8] is Leishmania donovani. Put plainly: Antileishmanial activity against promastigote form of wild-type Leishmania donovani MHOM/80/IN/Dd8 assessed as inhibition of parasite growth incubated for 48 hrs by MTT assay. The format is functional, organism-based. The note with it: MHOM/80/IN/Dd8, 48 h. On the technique in general: Formazan colour is commonly taken as a measure of viable cells.

The subject of data set [9] is Leishmania mexicana. Put plainly: Antileishmanial activity against promastigote form of Leishmania mexicana assessed as inhibition of parasite growth measured for 10 days by Neubauer counting chamber based analysis. In kind it is functional, organism-based. The note with it: 240 h.
Data set [10] deals with Leishmania panamensis. In words: Antileishmanial activity against Leishmania panamensis MHOM/CO/87/UA140-EGFP intracellular amastigotes infected in U-937 cells assessed as parasite growth inhibition measured after 72 hrs by flow cytometry analysis. In kind it is functional, organism-based. Conditions: U-937, 72 h.
In data set [11] the test system is U-937. Put plainly: Cytotoxicity against human U-937 cells assessed as reduction in cell viability measured after 72 hrs by MTT assay. The format is functional. The note with it: read-out: LC50 (the source's name).
For data set [12], the system named is Leishmania amazonensis. In words: Antileishmanial activity against promastigote form of Leishmania amazonensis (MHOM/BR/75/Josefa) assessed as inhibition of parasite growth measured after 72 hrs by Neubauer counting chamber based analysis. The format is functional, organism-based.
The subject of data set [13] is Leishmania amazonensis. In words: Antileishmanial activity against promastigote form of Leishmania amazonensis (MHOM/BR/71973/M2269) assessed as parasite growth inhibition by MTT assay. The format is functional, organism-based.
For data set [14], the system named is Leishmania amazonensis. Put plainly: Antileishmanial activity against amastigote form of Leishmania amazonensis (MHOM/BR/71973/M2269) assessed as parasite growth inhibition by MTT assay. In kind it is functional, organism-based.
For data set [15], the system named is Leishmania amazonensis. In words: Antileishmanial activity against promastigote form of Leishmania amazonensis MHOM/BR/77/LTB0016 incubated for 24 hrs by MTT assay. The format is functional, organism-based. The note with it: MHOM/BR/77/LTB0016, 24 h.
Data set [16] concerns Leishmania mexicana. Put plainly: Antileishmanial activity against mammalian stage Leishmania mexicana MNYC/BZ/62/M379 axenic amastigotes assessed as inhibition of […] incubated for 24 hrs by alamar blue assay. The format is functional. The note with it: read-out: ED50 (the source's name). Background: Alamar Blue is a resazurin reagent that responds to reducing activity.

For data set [17], the system named is Leishmania infantum. In words: Antileishmanial activity against Leishmania infantum MHOM/MA/67/ITMAP263 intracellular amastigotes infected in primary peritoneal mouse macrophages assessed as inhibition of parasite growth by cell based assay. In kind it is functional, organism-based. The note with it: MHOM/MA/67/ITMAP263, Peritoneal macrophage.
Data set [18] is described as follows: Cytotoxicity against BALB/c mouse peritoneal macrophages assessed as reduction in cell viability measured after 48 hrs by luminescence based CellTiter-Glo assay. In kind it is toxicity, Peritoneal macrophage.
For data set [19], the system named is Leishmania infantum. In words: Antileishmanial activity against promastigote form of Leishmania infantum BH 46 assessed as parasite growth inhibition measured after 48 hrs by Celltiter-Glo assay. In kind it is functional, organism-based. Conditions: BH 46, 48 h.
A short description of data set [20]: Selectivity index, ratio of CC50 for cytotoxicity against human THP1 cells to IC50 for antileishmanial activity against promastigote form of Leishmania donovani. In kind it is toxicity, cell-based. The note with it: read-out: Ratio CC50/IC50.
Data set [21] deals with Leishmania donovani. Put plainly: Antileishmanial activity against promastigote form of Leishmania donovani assessed as inhibition of promastigote growth incubated for 48 hrs by Alamar blue assay. In kind it is functional, organism-based.
The subject of data set [22] is Leishmania donovani. In words: Antileishmanial activity against promastigote form of Leishmania donovani MHOM/IN/83/AG83 assessed as inhibition of promastigote growth incubated for 48 hrs by MTT reduction assay. The format is functional, organism-based. The note with it: MHOM/IN/83/AG83, 48 h.
Data set [23] deals with Leishmania donovani. In words: Antileishmanial activity against Leishmania donovani MHOM/IN/83/AG83 intracellular amastigotes infected in mouse RAW264.7 cells assessed as parasite growth inhibition incubated for 48 hrs by Giemsa staining based microscopic analysis. In kind it is functional, organism-based. Conditions: MHOM/IN/83/AG83, RAW264.7, 48 h.

`O=C(C[Se]CC(=O)Nc1ccc([N+](=O)[O-])cc1)Nc1ccc([N+](=O)[O-])cc1`: the IC50 in data set [1] came out at 5.67 µg/mL (≈ 13 µM).

For `Cc1cc(C)cc(S(=O)(=O)n2c(SCC(=O)Nc3ccccc3)nc3ccccc32)c1`, in data set [2], the inhibition worked out at 97%.

Turning to `CC(CCCCCCC[n+]1ccn(C)c1)Oc1ccc(C(=O)/C=C/c2ccco2)cc1` (stereo not given), the values for the EC50 in data set [3] and in data set [4] were 0.78 µM and 0.66 µM, respectively.

For `S=C(N/N=C/c1c[nH]c2c(Br)cc(Br)cc12)Nc1ccccc1`, in data set [5], the IC50 was determined as 5.6 µM.

Consider `CCCCCCCCCCn1cc(COCC2CO2)[n+](C)n1` (stereo not given), for which the IC50 in data set [6] was determined as 7.61 µM.

For the molecule `O=C(/C=C/c1ccco1)c1ccc(OCCCCCOc2cccc3cccnc23)cc1`, in data set [3], the EC50 worked out at 13.8 µM.

Turning to `Cc1cccc(Nc2nnc(-c3ccc(C(c4c[nH]c5ccccc45)c4c[nH]c5ccccc45)cc3)s2)c1`, the IC50 in data set [7] was 0.7 µM.

With `O=[N+]([O-])c1ccc(COc2ccc(-c3nc4ccccc4[nH]3)cc2)cc1`, the half-maximal inhibitory concentration (IC50) in data set [8] came out at 68 µM.

`Fc1cccc(Nc2cnc3ccccc3c2)c1`: in data set [9], the 50% inhibitory concentration (IC50) came out at 41.9 µM.

Consider `O=C1C=C(c2ccc(F)cc2)S(=O)(=O)c2ccccc21`, for which the EC50 in [10] was determined as 6.72 µM. In data set [11], the CC50 turned out to be 694 µM.

For the molecule `CC1=CC[C@@H](C(C)(C)NC(=S)N/N=C/c2cccc([N+](=O)[O-])c2)CC1`, in [12], the 50% inhibitory concentration (IC50) was 2.4 µM.

Regarding `CCCc1cc(OC)c2oc(=O)c(C(=O)c3ccc([N+](=O)[O-])cc3)cc2c1`, the results for the IC50 in data set [13] and in [14] were 3.53 µM and 12 µM, respectively.

For `CN(C)CCCn1cc(/C=C/C(=O)c2ccc(I)cc2)c2ccccc21`, the half-maximal inhibitory concentration (IC50) in data set [8] worked out at 24.2 µM.

In the case of `O=c1ccoc2cc(OCCCCCCCCCOc3cccc4cccnc34)ccc12`, in data set [3], the EC50 came out at 6.11 µg/mL.

On to `Fc1ccc(Nc2cnc3ccccc3c2)cc1`, for which, in [9], the half-maximal inhibitory concentration (IC50) turned out to be 41.9 µM.

As to `N=C(N)c1ccc(OCCCCCOc2ccc(C(=N)N)cc2)cc1` [PENTAMIDINE], half-maximal inhibition in data set [15] (IC50) was put at 12.3 µM.

As for `Cn1cc[n+](CCCCCCCCOc2ccc(C(=O)/C=C/c3ccco3)cc2)c1`, the EC50 in data set [3] came out at 8.39 µM.

For `Clc1cccc(Nc2nnc(-c3ccc(C(c4c[nH]c5ccccc45)c4c[nH]c5ccccc45)cc3)s2)c1`, in data set [7], the IC50 came out at 0.7 µM.

As for `CC1(C)CC[C@]2(NC(=O)N3CCC[C@H]3C(=O)O)CC[C@]3(C)C(=CC[C@@H]4[C@@]5(C)CC[C@@H]6OC(C)(C)OC[C@@]6(C)[C@@H]5CC[C@]43C)[C@@H]2C1`, the EC50 in [16] was 4 µM.

As to `COC(=O)c1ccc(NC(=O)CSc2nc3ccc(Cl)cc3n2Cc2cc(C)cc(C)c2)c(Cl)c1`, the IC50 in [17] was determined as 6.82 µM.

Take `C/C(=N\Nc1nc(-c2ccc(Br)cc2)cs1)c1ccccn1`: in [18], the CC50 at 48 h turned out to be 2.95 µM. Moreover, in data set [19], the IC50 is 3.12 µM.

For `NC(=S)N/N=C(\C=C\c1ccc(Cl)cc1)c1ccccc1`, the IC50 in data set [15] came to 5.22 µM.

Take `CC(C)CCN1C(=O)C=CC1=O`: in [20], the selectivity ratio was above 781. For the same molecule, the IC50 in data set [21] was below 0.0128 µg/mL.

`Cc1ccc(-c2nn(-c3ccccc3)cc2/C=C/c2nnc(-c3sc4ccccc4c3Cl)o2)cc1`: the results for the IC50 in data set [22] and in data set [23] were 19 µg/mL (≈ 38.4 µM) and 73.1 µg/mL (≈ 148 µM), respectively.

The term IC50 denotes the point on the concentration scale where inhibition reaches its midpoint. In general, inhibition refers to how much of the control response was suppressed.

These data come from ChEMBL document CHEMBL5096192, “Recent advancements in anti-leishmanial research: Synthetic strategies and structural activity relationships” (Eur J Med Chem, 2021).
